Reference: publication PMC2360206 (British Journal of Cancer, 2006)
“And” between values parts separate entries of the source, which are not always exact repeats. Identical values can stand only once. Like-named read-outs stand apart in the source and are kept apart here.

Legend:
[1] = design: method as in Raynaud et al, 2005; settings: mouse, single dose 500 mg kg^−1 p.o.; ref Raynaud et al, 2005; cited from earlier work
[2] = 28 days treatment in rodents; no reference given; cited from earlier work
[3] = Phase I plasma pharmacokinetics in patients; assay type: in vivo, human; settings: for Cmax / half-life / AUC(0-inf) / AUC(0-t) / Tmax: human, plasma
Description: For PK analysis, blood samples (approximately 8 ml each) were collected in tubes with lithium heparin anticoagulant at the following time points: pre-dose and 0.5, 1, 1.5, 2, 4, 8, 12 (pre-second dose), 13, 14 and 24 h (pre-dose if day 2) after dosing on both days 1 and 7 of the first cycle. The samples were then centrifuged at 3000 r.p.m at 4°C for 10 min, the plasma transferred to 2 ml cryovials and frozen at −70°C until analysis.
Pharmacokinetic (PK) analysis was performed using the trapezoidal method and log-linear regression. The following parameters were determined either by calculation or observation: the observed maximal concentration (Cmax), the time of observed maximal concentration (Tmax), the area under the concentration–time curve calculated by the trapezoidal rule (time 0 to last sample with a quantifiable concentration (AUC (0−tz)) and extrapolated to infinity (AUC(0−∞)), the terminal rate constant, by log-linear regression (λz) and the terminal half-life from λz. The value of AUC(0−∞) was considered unreliable if the terminal area beyond the last quantified sample was greater than 20% of the total AUC(0−∞). Pharmacokinetic (PK) data analysis was carried out using a noncompartmental analysis model with the aid of Kinetica (Innaphase Limited, Amersham, UK).

[4] = po, 100 mg, Day 1, 100 mg b.i.d. p.o. (n=3), mean, course 1
[5] = po, 100 mg, Day 1, 100 mg b.i.d. p.o. (n=3), median, course 1
[6] = po, 100 mg, Day 7, 100 mg b.i.d. p.o. (n=3), mean, course 1
[7] = po, 100 mg, Day 7, 100 mg b.i.d. p.o. (n=3), median, course 1
[8] = po, 200 mg, Day 1, 200 mg b.i.d. p.o. (n=6), mean, course 1
[9] = po, 200 mg, Day 1, 200 mg b.i.d. p.o. (n=6), median, course 1
[10] = po, 200 mg, Day 7, 200 mg b.i.d. p.o. (n=6), mean, course 1
[11] = po, 200 mg, Day 7, 200 mg b.i.d. p.o. (n=6), median, course 1
[12] = po, 800 mg, Day 1, 800 mg b.i.d. p.o. (n=12), mean, course 1
[13] = po, 800 mg, Day 1, 800 mg b.i.d. p.o. (n=12), median, course 1
[14] = po, 800 mg, Day 7, 800 mg b.i.d. p.o. (n=8), mean, course 1
[15] = po, 800 mg, Day 7, 800 mg b.i.d. p.o. (n=8), median, course 1

## CC[C@H](CO)Nc1nc(NCc2ccccc2)c2ncn(C(C)C)c2n1 [Seliciclib]
[1]
  peak seliciclib concentration: approximately 100 μM
[2]
  Preclinical toxicology findings: anaemia, leucocytosis, bone marrow hyperplasia, polydipsia, polyuria and gastric ulceration
[3]; highest dose level (800 mg)
  mean maximum plasma concentration: approximately 3 μg ml^−1
[3]; oral, 800 mg, 800 mg dose level, read-out: mean Cmax
  Cmax: 3e+06 ng/mL and 10 µM
[3]; oral, similar in all dose groups, read-out: terminal (elimination) half-life
  half-life: 2 to 5 h
[3]; [4]
  AUC(0-inf): 1920 ng·h/mL
  AUC(0-t): 1870 ng·h/mL
[3]; po, 100 mg, Day 1, 100 mg b.i.d. p.o. (n=3), mean, course 1, read-out: Cmax
  Cmax: 248 ng/mL
[3]; po, 100 mg, Day 1, 100 mg b.i.d. p.o. (n=3), mean, course 1, read-out: Tmax (converted)
  Tmax: 1.87 h
[3]; po, 100 mg, Day 1, 100 mg b.i.d. p.o. (n=3), mean, course 1, read-out: t1/2
  half-life: 4.45 h
[3]; [5]
  AUC(0-inf): 1500 ng·h/mL
  AUC(0-t): 1370 ng·h/mL
[3]; po, 100 mg, Day 1, 100 mg b.i.d. p.o. (n=3), median, course 1, read-out: Cmax
  Cmax: 134 ng/mL
[3]; po, 100 mg, Day 1, 100 mg b.i.d. p.o. (n=3), median, course 1, read-out: Tmax (converted)
  Tmax: 1.02 h
[3]; po, 100 mg, Day 1, 100 mg b.i.d. p.o. (n=3), median, course 1, read-out: t1/2
  half-life: 4.63 h
[3]; [6]
  AUC(0-inf): 2890 ng·h/mL
  AUC(0-t): 2860 ng·h/mL
[3]; po, 100 mg, Day 7, 100 mg b.i.d. p.o. (n=3), mean, course 1, read-out: Cmax
  Cmax: 162 ng/mL
[3]; po, 100 mg, Day 7, 100 mg b.i.d. p.o. (n=3), mean, course 1, read-out: Tmax (converted)
  Tmax: 3.17 h
[3]; po, 100 mg, Day 7, 100 mg b.i.d. p.o. (n=3), mean, course 1, read-out: t1/2
  half-life: 4.47 h
[3]; [7]
  AUC(0-inf): 3040 ng·h/mL
  AUC(0-t): 3030 ng·h/mL
[3]; po, 100 mg, Day 7, 100 mg b.i.d. p.o. (n=3), median, course 1, read-out: Cmax
  Cmax: 152 ng/mL
[3]; po, 100 mg, Day 7, 100 mg b.i.d. p.o. (n=3), median, course 1, read-out: Tmax (converted)
  Tmax: 4 h
[3]; po, 100 mg, Day 7, 100 mg b.i.d. p.o. (n=3), median, course 1, read-out: t1/2
  half-life: 3.9 h
[3]; [8]
  AUC(0-inf): 3030 ng·h/mL
  AUC(0-t): 2770 ng·h/mL
[3]; po, 200 mg, Day 1, 200 mg b.i.d. p.o. (n=6), mean, course 1, read-out: Cmax
  Cmax: 179 ng/mL
[3]; po, 200 mg, Day 1, 200 mg b.i.d. p.o. (n=6), mean, course 1, read-out: Tmax (converted)
  Tmax: 4.65 h
[3]; po, 200 mg, Day 1, 200 mg b.i.d. p.o. (n=6), mean, course 1, read-out: t1/2
  half-life: 2.93 h
[3]; [9]
  AUC(0-inf): 3840 ng·h/mL
  AUC(0-t): 3080 ng·h/mL
[3]; po, 200 mg, Day 1, 200 mg b.i.d. p.o. (n=6), median, course 1, read-out: Cmax
  Cmax: 80 ng/mL
[3]; po, 200 mg, Day 1, 200 mg b.i.d. p.o. (n=6), median, course 1, read-out: Tmax (converted)
  Tmax: 2.78 h
[3]; po, 200 mg, Day 1, 200 mg b.i.d. p.o. (n=6), median, course 1, read-out: t1/2
  half-life: 2.48 h
[3]; [10]
  AUC(0-inf): 4250 ng·h/mL
  AUC(0-t): 2930 ng·h/mL
[3]; po, 200 mg, Day 7, 200 mg b.i.d. p.o. (n=6), mean, course 1, read-out: Cmax
  Cmax: 310 ng/mL
[3]; po, 200 mg, Day 7, 200 mg b.i.d. p.o. (n=6), mean, course 1, read-out: Tmax (converted)
  Tmax: 1.03 h
[3]; po, 200 mg, Day 7, 200 mg b.i.d. p.o. (n=6), mean, course 1, read-out: t1/2
  half-life: 13 h
[3]; [11]
  AUC(0-inf): 3480 ng·h/mL
  AUC(0-t): 3080 ng·h/mL
[3]; po, 200 mg, Day 7, 200 mg b.i.d. p.o. (n=6), median, course 1, read-out: Cmax
  Cmax: 303 ng/mL
[3]; po, 200 mg, Day 7, 200 mg b.i.d. p.o. (n=6), median, course 1, read-out: Tmax (converted)
  Tmax: 1 h
[3]; po, 200 mg, Day 7, 200 mg b.i.d. p.o. (n=6), median, course 1, read-out: t1/2
  half-life: 3.8 h
[3]; [12]
  AUC(0-inf): 53000 ng·h/mL
  AUC(0-t): 52700 ng·h/mL
[3]; po, 800 mg, Day 1, 800 mg b.i.d. p.o. (n=12), mean, course 1, read-out: Cmax
  Cmax: 3200 ng/mL
[3]; po, 800 mg, Day 1, 800 mg b.i.d. p.o. (n=12), mean, course 1, read-out: Tmax (converted)
  Tmax: 2.95 h
[3]; po, 800 mg, Day 1, 800 mg b.i.d. p.o. (n=12), mean, course 1, read-out: t1/2
  half-life: 3.65 h
[3]; [13]
  AUC(0-inf): 57500 ng·h/mL
  AUC(0-t): 57400 ng·h/mL
[3]; po, 800 mg, Day 1, 800 mg b.i.d. p.o. (n=12), median, course 1, read-out: Cmax
  Cmax: 3160 ng/mL
[3]; po, 800 mg, Day 1, 800 mg b.i.d. p.o. (n=12), median, course 1, read-out: Tmax (converted)
  Tmax: 2 h
[3]; po, 800 mg, Day 1, 800 mg b.i.d. p.o. (n=12), median, course 1, read-out: t1/2
  half-life: 3.87 h
[3]; [14]
  AUC(0-inf): 26600 ng·h/mL
  AUC(0-t): 26500 ng·h/mL
[3]; po, 800 mg, Day 7, 800 mg b.i.d. p.o. (n=8), mean, course 1, read-out: Cmax
  Cmax: 2770 ng/mL
[3]; po, 800 mg, Day 7, 800 mg b.i.d. p.o. (n=8), mean, course 1, read-out: Tmax (converted)
  Tmax: 1.65 h
[3]; po, 800 mg, Day 7, 800 mg b.i.d. p.o. (n=8), mean, course 1, read-out: t1/2
  half-life: 3.83 h
[3]; [15]
  AUC(0-inf): 21300 ng·h/mL
  AUC(0-t): 21300 ng·h/mL
[3]; po, 800 mg, Day 7, 800 mg b.i.d. p.o. (n=8), median, course 1, read-out: Cmax
  Cmax: 2640 ng/mL
[3]; po, 800 mg, Day 7, 800 mg b.i.d. p.o. (n=8), median, course 1, read-out: Tmax (converted)
  Tmax: 1.78 h
[3]; po, 800 mg, Day 7, 800 mg b.i.d. p.o. (n=8), median, course 1, read-out: t1/2
  half-life: 3.48 h
[3]; po, all dose levels, oral, read-out: Tmax range (time to peak plasma concentrations)
  Tmax: 1 to 4 h
[3]; po, all dose levels, oral, read-out: mean Tmax
  Tmax: 2.55 h
[3]; patients, oral
  plasma clearance: greater than liver blood flow
